Data taken from patent publication US11806359B2 (priority 2020, dated 2023).
≈ marks a conversion by molar mass, not a printed value.

How the values were obtained:
[1] = system: ZIKV (PLCal_ZV strain); assay: CPE-based antiviral assay, ZIKV, neutral red readout (Example 14); assay type: cell-based, Zikavirus; conditions: 6 days post infection
Protocol: A CPE-based antiviral assay was performed by infecting target cells in the presence or absence of test compositions, at a range of concentrations. […] cytopathic effects and cell death. […] For CPE-based assays, cell viability was determined with a neutral red readout. Viable cells incorporate neutral red in their lysosomes. Uptake of neutral red relies on the ability of live cells to maintain a lower pH inside their lysosomes than in the cytoplasm, and this active process requires ATP. Once inside the lysosome, the neutral red dye becomes charged and is retained intracellularly. […] The amount of neutral red in solution was quantified by reading the absorbance (optical density) of each well at 490 nm […]
Cytotoxic effects were evaluated in uninfected cells by comparing viability in the presence of inhibitors to the viability of mock-treated cells. Cytotoxicity was determined by an XTT viability assay, which was conducted at the same timepoint as the readout for the corresponding infection assay.
Test compositions were dissolved in 100% methanol. […] When possible, the EC50 and CC50 of the composition was determined for each assay using GraphPad Prism software. […]
Protection of ZIKV-induced cytopathic effect (CPE) with Neutral Red readout: For the ZIKV antiviral assay, the PLCal_ZV strain was used. […]

[2] = system: adenovirus; assay: Antiviral activity against adenovirus; assay type: cell-based
[3] = system: Vero cells
[4] = system: Marburgvirus (MARV/Ci67); assay type: cell-based; conditions: based on the oleandrin content; final concentration of compositions 20 microg/mL
[5] = system: SARS-CoV-2; assay: Direct antiviral activity against SARS-CoV-2, percent infected cells by immunostaining (Example 29); assay type: cell-based
Protocol: The results are depicted in FIGS. 24A and 24B. […] Potential methods of action include inhibition of viral replication, assembly, and/or egress.
Growth media was removed from confluent monolayers of approximately 10^6 Vero CCL81 cells in 6-well plates. Oleandrin was serially diluted in culture media and added to […]. The growth media was replaced with 200 μl of maintenance media containing either 1.0 μg/ml, 0.5 μg/ml, 100 ng/ml, 50 ng/ml, 10 ng/ml, or 5 ng/ml oleandrin, or matched DMSO-only controls. The plates were incubated at 37° C. for about 30 minutes prior to addition of virus.
SARS-CoV-2 virus was added to Oleandrin treated cells and untreated cells at a MOI (multiplicity of infection) of 0.4 (entry assay) or 0.02 (replication assay). Oleandrin remained in the wells during a 1 hr incubation at 37° C.
After 1 hr absorption, inoculation media was removed and washed 1 time with PBS (standard phosphate buffer saline).
Media alone (no oleandrin) was added back to oleandrin-treated wells designated as “Pretreatment” on data slides. Media with indicated concentrations of oleandrin was added back to wells designated as “Duration” on data slides.
Plates were fixed at either 24 (entry assay) or 48 (replication assay) hours post-infection and immunostained with virus-specific antibody and fluorescently labeled secondary antibody.
Cells were imaged using an Operetta and data was analyzed using custom algorithms in Harmonia software to determine the percent of infected cells in each well.

[6] = system: Ebolavirus (EBOV/Kik); assay type: cell-based; conditions: based on the oleandrin content; final concentration of compositions 20 microg/mL
[7] = system: SARS-CoV-2; assay: microbe, parasite or virus in culture; assay type: cell-based

CO[C@H]1C[C@H](O[C@H]2CC[C@@]3(C)[C@H](CC[C@@H]4[C@@H]3CC[C@]3(C)[C@@H](C5=CC(=O)OC5)[C@@H](OC(C)=O)C[C@]43O)C2)O[C@@H](C)[C@@H]1O [oleandrin]
efficacy against Zika virus [1]: demonstrates efficacy
activity against adenovirus [2]: insufficiently active
toxicity to Vero cells [3]: not overly toxic
efficacy against Marburgvirus [4]: efficacious
antiviral activity ([5]; 48-h, oleandrin only during the absorption phase (Pre-treatment data)): minimal antiviral activity
viral infection ([5]; 48-h, treated for the duration of the assay): significantly limited viral infection
virus entry and/or viral replication ([5]; 24 h, treated for the duration of the assay): significantly limited virus entry and/or viral replication
efficacy against Ebolavirus [6]: efficacious
concentrations with substantial antiviral activity [7]: above 0.01 microg/mL
effect on titer [7]: significant reduction in titer
effect on titer compared to DMSO control [7]: no significant effect
viral titer [7]: substantial reduction in viral titer
viral titer at the two higher doses [7]: essentially to or below the limit of detection
EC50 ([7]; Severe acute respiratory syndrome coronavirus 2, 24 h): 12 ng/mL (≈ 0.0208 µM)
EC50 ([7]; Severe acute respiratory syndrome coronavirus 2, 48 h): 7.07 ng/mL (≈ 0.0123 µM)
